Experimental data reported in patent US8906825B2, “Herbicidal compositions comprising 4-amino-3-chloro-5-fluoro-6-(4-chloro-2-fluoro-3-methoxyphenyl) pyridine-2-carboxylic acid or a derivative thereof and triazolopyrimidine sulfonamides” (Dow AgroSciences LLC, priority 2012, dated 2014).

Tests used:
Assay in all cases: Postemergence foliar-applied herbicidal mixtures, cereal crops, greenhouse (Example III)
Type in all cases: in vivo
[1] = test system: MATCH (Chamomilla chamomilla (L.) Rydb., scented mayweed); details: Florasulam 3.75 gai/ha, visual score 0 to 100 percent after 20-22 days
Protocol: (§1) Seeds of the desired test plant species were planted in Sun Gro MetroMix® 306 planting mixture, which typically has a pH of 6.0 to 6.8 and an organic matter content of about 30 percent, in plastic pots with a surface area of 103.2 square centimeters (cm^2). […] The plants were grown for 7-36 days in a greenhouse with an approximate 14 hour photoperiod which was maintained at about 18° C. during the day and about 17° C. during the night. Nutrients and water were added on a regular basis and supplemental lighting was provided with overhead metal halide 1000-Watt lamps as necessary. The plants were employed for testing when they reached the second or third true leaf stage.
(§2) Treatments consisted of the benzyl ester of 4-amino-3-chloro-5-fluoro-6-(4-chloro-2-fluoro-3-methoxy-phenyl)pyridine-2-carboxylic acid (Compound A), formulated as an SC, a second cereal herbicide alone and then both in combination.
(§3) Other herbicidal components were applied on an active ingredient basis and included acetolactate synthase (ALS)-inhibiting herbicides (sulfonamide chemical class) florasulam formulated as Derby® and pyroxsulam formulated as PowerFlex®. A measured aliquot of benzyl ester of 4-amino-3-chloro-5-fluoro-6-(4-chloro-2-fluoro-3-methoxy-phenyl)pyridine-2-carboxylic acid (Compound A) was placed in 25 milliliter (mL) glass vials and diluted in a volume of 1.25% (v/v) AgriDex® crop oil concentrated to obtain a stock solution. Compound requirements are based upon a 12 mL application volume at a rate of 187 liters per hectare (L/ha). […] Formulated compounds were applied to the plant material with an overhead Mandel track sprayer equipped with an 8002E nozzle calibrated to deliver 187 L/ha over an application area of 0.503 square meters (m^2) at a spray height of 18 inches (46 cm) above average plant canopy. Control plants were sprayed in the same manner with the solvent blank.
(§4) The treated plants and control plants were placed in a greenhouse as described above and watered by sub-irrigation to prevent wash-off of the test compounds. After 20-22 days, the condition of the test plants as compared with that of the control plants was determined visually and scored on a scale of 0 to 100 percent where 0 corresponds to no injury and 100 corresponds to complete kill.
(§5) Colby's equation was used to determine the herbicidal effects expected from the mixtures (Colby, S. R. 1967. Calculation of the synergistic and antagonistic response of herbicide combinations. Weeds 15:20-22.).
(§6) The following equation was used to calculate the expected activity of mixtures containing two active ingredients, A and B: Expected=A+B−(A×B/100)

[2] = test system: VERPE (Veronica persica Poir., bird's-eye speedwell); details: visual score 0 to 100 percent after 20-22 days
Protocol: as §1, §2, §3, §4, §5, §6

[3] = test system: CIRAR (Cirsium arvense (L.) Scop., Canada thistle); details: visual score 0 to 100 percent after 20-22 days
Protocol: as §1, §2, §3, §4, §5, §6

[4] = test system: SASKR (Salsola iberica (L.), Russian thistle); details: Florasulam 3.75 gai/ha, visual score 0 to 100 percent after 20-22 days
Protocol: as §1, §2, §3, §4, §5, §6

[5] = test system: LAMPU (Lamium purpureum (L.), purple deadnettle); details: Florasulam 1.25 gai/ha, visual score 0 to 100 percent after 20-22 days
Protocol: as §1, §2, §3, §4, §5, §6

[6] = test system: VIOTR (Viola tricolor (L.), wild pansy); details: Florasulam 3.75 gai/ha, visual score 0 to 100 percent after 20-22 days
Protocol: as §1, §2, §3, §4, §5, §6

COc1ncc(F)c2nc(S(=O)(=O)Nc3c(F)cccc3F)nn12 [Florasulam, N-(2,6-difluorophenyl)-8-fluoro-5-methoxy[1,2,4]triazolo[1,5-c]pyrimidine-2-sulfonamide, reference compound]
MATCH Obs [1]: 65%
VERPE Obs ([2]; Florasulam 1.25 gai/ha): 10%
VERPE Obs ([2]; Florasulam 3.75 gai/ha): 10%
CIRAR Obs ([3]; Florasulam 1.25 gai/ha): 55%
CIRAR Obs ([3]; Florasulam 3.75 gai/ha): 40%
SASKR Obs [4]: 30%
LAMPU Obs [5]: 10%
VIOTR Obs [6]: 65%
